Test results from ChEMBL document CHEMBL1201862, “PubChem BioAssay data set” (2004).
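The compound was tested at five concentrations on cells cultured in 96-well plates, with a 48-hour exposure period. The concentration for 50% growth inhibition is given as GI50.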 The source made the active and inactive calls. Rule as the data show it: active = GI50 up to about 1.1 µM and inactive = higher.

Columns and labels:
Test in all cases: NCI-60 cell line screen, 48 h
SK-MEL-5 = system: SK-MEL-5
SW-620 = system: SW-620
SNB-19 = system: SNB-19
HT-29 = system: HT-29
DU-145 = system: DU-145
SK-MEL-28 = system: SK-MEL-28
HCT-116 = system: HCT-116
OVCAR-8 = system: OVCAR-8
OVCAR-4 = system: OVCAR-4
SK-MEL-2 = system: SK-MEL-2
HCT-15 = system: HCT-15
HOP-92 = system: HOP-92
TK-10 = system: TK-10
OVCAR-5 = system: OVCAR-5
ACHN = system: ACHN
M14 = system: M14
SR = system: SR
MDA-MB-231 = system: MDA-MB-231
NCI/ADR-RES = system: NCI/ADR-RES
UACC-62 = system: UACC-62

SMILES | GI50 (SK-MEL-5) | GI50 (SW-620) | GI50 (SNB-19) | GI50 (HT-29) | GI50 (DU-145) | GI50 (SK-MEL-28) | GI50 (HCT-116) | GI50 (OVCAR-8) | GI50 (OVCAR-4) | GI50 (SK-MEL-2) | GI50 (HCT-15) [µM] | GI50 (HOP-92) | GI50 (TK-10) | GI50 (OVCAR-5) | GI50 (ACHN) | GI50 (M14) | GI50 (SR) | GI50 (MDA-MB-231) | GI50 (NCI/ADR-RES) | GI50 (UACC-62)
CC1Cc2c(cc(N)nc2Br)NC1=O (stereo not given) | 85.1 µM (inactive) | > 100 µM (inactive) | > 100 µM (inactive) | > 100 µM (inactive) | > 100 µM (inactive) | > 100 µM (inactive) | 64.6 µM (inactive) | > 100 µM (inactive) | > 100 µM (inactive) | > 100 µM (inactive) | > 100 | 45.9 µM (inactive) | > 100 µM (inactive) | > 100 µM (inactive) | 64.3 µM (inactive) | > 100 µM (inactive) | 84.1 µM (inactive) | > 100 µM (inactive) | > 100 µM (inactive) | > 100 µM (inactive)
Cn1c(=O)cc(/N=N\c2ccc(Cl)c(Cl)c2)[nH]c1=O | 35.2 µM (inactive) | 24.3 µM (inactive) | 63.8 µM (inactive) | 19.9 µM (inactive) | 85.5 µM (inactive) | 23.6 µM (inactive) | 28.4 µM (inactive) | 23.4 µM (inactive) | 27.7 µM (inactive) | 14.6 µM (inactive) | 19.6 | 30 µM (inactive) | 23.8 µM (inactive) | 24.8 µM (inactive) | 21.2 µM (inactive) | 20.3 µM (inactive) | 25.5 µM (inactive) | 24.8 µM (inactive) | 34.2 µM (inactive) | 62.2 µM (inactive)
CC1c2ccccc2Cn2cc3c(c21)C(=O)c1cccc(OP(=O)(O)OCc2ccccc2)c1C3=O (stereo not given) | > 100 µM (inactive) | > 100 µM (inactive) | > 100 µM (inactive) | > 100 µM (inactive) | > 100 µM (inactive) | > 100 µM (inactive) | > 100 µM (inactive) | > 100 µM (inactive) | > 100 µM (inactive) | > 100 µM (inactive) | > 100 | > 100 µM (inactive) | > 100 µM (inactive) | > 100 µM (inactive) | > 100 µM (inactive) | > 100 µM (inactive) | > 66.5 µM (inactive) | > 100 µM (inactive) | > 100 µM (inactive) | > 100 µM (inactive)
CC(=O)OC1CCC2(C)C(=CCC3C4CCC5(OC6CC(C)CN(C(C)=O)C6C5C)C(C)=C4C(=O)C32)C1 (stereo not given) | 10 µM (inactive) | 66.8 µM (inactive) | 13.7 µM (inactive) | 19.9 µM (inactive) | 30.8 µM (inactive) | > 100 µM (inactive) | 18.9 µM (inactive) | 18.5 µM (inactive) | 15.4 µM (inactive) | 17.8 µM (inactive) | 15.7 | 15 µM (inactive) | 24.3 µM (inactive) | 19.2 µM (inactive) | 25.5 µM (inactive) | 12.7 µM (inactive) | 16 µM (inactive) | 17.2 µM (inactive) | 18 µM (inactive) | 5.35 µM (inactive)
COC(=O)/C=C/C(=O)Nc1cc(Cl)c(Cl)cc1CC(=O)N(C)[C@H]1CCCC[C@@H]1N1CCCC1 | 8.67 µM (inactive) | 3.63 µM (inactive) | 18.3 µM (inactive) | 7.8 µM (inactive) | 5.02 µM (inactive) | 16.1 µM (inactive) | 6.5 µM (inactive) | 5.27 µM (inactive) | 8.63 µM (inactive) | 7.29 µM (inactive) | 11.4 | 5.74 µM (inactive) | 2.29 µM (inactive) | 15.8 µM (inactive) | 2.85 µM (inactive) | 7.41 µM (inactive) | 1.95 µM (inactive) | 13.3 µM (inactive) | 14.7 µM (inactive) | 13.9 µM (inactive)
COc1ccc2nc3cc(Cl)ccc3c(Nc3ccccc3-c3ccccc3Nc3c4ccc(Cl)cc4nc4ccc(OC)cc34)c2c1 | 18.1 µM (inactive) | 15.4 µM (inactive) | 40.4 µM (inactive) | 10.5 µM (inactive) | 69.3 µM (inactive) | 41.8 µM (inactive) | 11.7 µM (inactive) | 28.5 µM (inactive) | 17.4 µM (inactive) | 34.2 µM (inactive) | 14.3 | 31.8 µM (inactive) | 64.1 µM (inactive) | 37.8 µM (inactive) | > 29.4 µM (inactive) | 43.6 µM (inactive) | 3.5 µM (inactive) | 26.9 µM (inactive) | 13.6 µM (inactive) | 27.5 µM (inactive)
CC12c3c4cccc3Oc3cc(N)cc(c31)Oc1cc(N)cc(c12)O4 | 3.3 µM (inactive) | 3.48 µM (inactive) | 7.14 µM (inactive) | 2.01 µM (inactive) | 5.52 µM (inactive) | 6.21 µM (inactive) | 3.14 µM (inactive) | 0.524 µM (active) | 10.4 µM (inactive) | 9.86 µM (inactive) | 4.14 | 21.4 µM (inactive) | 10 µM (inactive) | 4.31 µM (inactive) | 11.1 µM (inactive) | 4.55 µM (inactive) | 6.22 µM (inactive) | 3.5 µM (inactive) | 0.953 µM (active) | 4.59 µM (inactive)
CC1=CC(=O)[C@@H](O)[C@]2(C)[C@H]3[C@@]4(O)OC[C@]35[C@H]([C@@H](C)[C@H]4O)[C@@H](O)C(=O)O[C@@H]5C[C@@H]12 | 0.118 µM (active) | 0.428 µM (active) | 0.115 µM (active) | 0.387 µM (active) | 0.33 µM (active) | 0.156 µM (active) | 0.0428 µM (active) | 0.279 µM (active) | 0.597 µM (active) | 0.219 µM (active) | 0.175 | 0.327 µM (active) | 0.338 µM (active) | 0.706 µM (active) | 0.348 µM (active) | 0.25 µM (active) | 77.6 µM (inactive) | 0.252 µM (active) | 2.29 µM (inactive) | 0.312 µM (active)
CC1OC(OC2C(OC(=O)[C@]34CCC(C)(C)C[C@H]3C3=CC[C@@H]5[C@@]6(C)CC[C@H](OC7OC(CO)C(O)C(O)C7OC7OC(CO)C(O)C(O)C7O)C(C)(C)[C@@H]6CC[C@@]5(C)[C@]3(C)CC4)OCC(O)C2O)C(O)C(O)C1OC1OCC(O)C(O)C1O (stereo not given in full) | 14.3 µM (inactive) | 16.1 µM (inactive) | 14.5 µM (inactive) | 7.03 µM (inactive) | 11.9 µM (inactive) | 2.65 µM (inactive) | 11 µM (inactive) | 16.5 µM (inactive) | 9.59 µM (inactive) | 6.32 µM (inactive) | 15.7 | 6.85 µM (inactive) | 8.51 µM (inactive) | 7.98 µM (inactive) | 11.9 µM (inactive) | 4.67 µM (inactive) | 7.93 µM (inactive) | 7.83 µM (inactive) | 8.97 µM (inactive) | 16.9 µM (inactive)
CN(C)CCNC(=O)c1cccc2c(NC(CCC(N)=O)C(=O)O)c3ccccc3nc12 (stereo not given) | 10.6 µM (inactive) | 4.55 µM (inactive) | 3.49 µM (inactive) | 4.67 µM (inactive) | 19.5 µM (inactive) | 12.5 µM (inactive) | 6.03 µM (inactive) | 9.18 µM (inactive) | 16.1 µM (inactive) | 11.9 µM (inactive) | 4.08 | 14.5 µM (inactive) | 34.1 µM (inactive) | 9.51 µM (inactive) | 3.37 µM (inactive) | 7.55 µM (inactive) | > 100 µM (inactive) | 7.66 µM (inactive) | 9.98 µM (inactive) | 19.9 µM (inactive)
O=C(O)CCNc1ccccc1C(=O)O | > 100 µM (inactive) | > 100 µM (inactive) | > 100 µM (inactive) | > 100 µM (inactive) | > 100 µM (inactive) | > 100 µM (inactive) | > 100 µM (inactive) | > 100 µM (inactive) | > 100 µM (inactive) | > 100 µM (inactive) | > 100 | > 100 µM (inactive) | > 100 µM (inactive) | > 100 µM (inactive) | > 100 µM (inactive) | > 100 µM (inactive) | > 100 µM (inactive) | > 100 µM (inactive) | > 100 µM (inactive) | > 100 µM (inactive)
